The text below walks through data of patent US20230158100A1, “TREATMENT OF PANX1 ASSOCIATES DISEASES” (NURITAS LIMITED, priority 2020, published 2023).

Like-named read-outs stand apart in the source and are kept apart here. No end group written: not given here. Cy5 = Cy5 cyanine dye label

For data set [1] the following is noted: cited from earlier work.
For data set [2] the following is noted: Werle and Bernkop-Schnürch 2006; cited from earlier work.
Data set [3] relates to lipoproteins. The note with it: binding to lipoproteins; cited from earlier work.
In data set [4] the test system is PANX1. Briefly: Retrogenix cell microarray, confirmation on fixed and live cells. Type of data set: binding, human. Conditions: for binding / specific interaction with PANX1: fixed HEK293 cells, 0.01 and 0.05 μg/ml, two separate expression clones. The method, then: (§1) CY5-labelled peptide (SEQUENCE ID NO. 1; (0.01 & 0.05 μg/ml) was screened for binding against fixed HEK293 Cells expressing 5528 human plasma membrane proteins. Screening was carried across two replicates and initial hits were selected and screened in more specific confirmation assay.
Chain of PANX1 (Q96RD7 1-400 limits assumed): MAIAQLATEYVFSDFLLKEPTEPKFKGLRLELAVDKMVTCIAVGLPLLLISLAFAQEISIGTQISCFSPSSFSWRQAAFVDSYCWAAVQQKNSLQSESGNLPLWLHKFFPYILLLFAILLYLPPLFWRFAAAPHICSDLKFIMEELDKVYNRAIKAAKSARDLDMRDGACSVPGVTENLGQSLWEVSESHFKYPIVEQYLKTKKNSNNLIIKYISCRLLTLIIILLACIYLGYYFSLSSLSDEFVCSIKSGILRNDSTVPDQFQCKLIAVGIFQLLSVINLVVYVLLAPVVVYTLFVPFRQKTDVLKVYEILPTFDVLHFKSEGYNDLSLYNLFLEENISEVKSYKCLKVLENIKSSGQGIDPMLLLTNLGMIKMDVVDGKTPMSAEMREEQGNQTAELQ
(§2) To confirm extracellular membrane binding of the peptide in culture, receptor screening was carried out (Retrogenix). Retrogenix's cell microarray technology was used to screen for specific cell surface target interactions of a CY5 labelled peptide (pep_HTWCFL the CY5 labelled version of SEQUENCE ID NO. 1).
(§3) Under this condition, the test peptide was screened for binding against fixed human HEK293 cells, individually expressing 5528 full-length human plasma membrane proteins and secreted proteins.
(§4) Each primary hit was then re-expressed, along with two control receptors (CD20 (MS4A1) and EGFR), and re-tested with 0.01 μg/ml and 0.05 μg/ml test peptide, equal concentrations of a control peptide, and other positive and negative control treatments. […] Among these were PANX1 (from two separate expression clones), SLC35F2 and TACR1.

The target in data set [5] is T1, SLC35F2 (Homo sapiens, UniProt Q8IXU6).
T1 construct: individually expressing 5528 full-length human plasma membrane proteins and secreted proteins; host or cells: HEK293 (fixed and live)
T1 sequence (Q8IXU6 1-374): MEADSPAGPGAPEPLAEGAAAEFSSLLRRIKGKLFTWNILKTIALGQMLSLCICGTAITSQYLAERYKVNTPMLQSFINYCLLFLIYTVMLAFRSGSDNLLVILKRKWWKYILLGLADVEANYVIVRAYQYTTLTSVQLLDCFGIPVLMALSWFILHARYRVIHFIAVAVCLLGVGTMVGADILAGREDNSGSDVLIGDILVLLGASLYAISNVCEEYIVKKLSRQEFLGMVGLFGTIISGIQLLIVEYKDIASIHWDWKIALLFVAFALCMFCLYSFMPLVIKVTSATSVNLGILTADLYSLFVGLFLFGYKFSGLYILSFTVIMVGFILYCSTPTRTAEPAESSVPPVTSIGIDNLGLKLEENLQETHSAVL
The description is as above. Type of data set: binding. Conditions: for binding / specific interaction with SLC35F2: fixed HEK293 cells, 0.01 and 0.05 μg/ml. The method, then:
as §1, §2, §3, §4

The target in data set [6] is T2, TACR1 (Substance P receptor) (Homo sapiens, UniProt P25103).
T2 construct: individually expressing 5528 full-length human plasma membrane proteins and secreted proteins; host or cells: HEK293 (fixed and live)
T2 sequence (P25103 whole entry): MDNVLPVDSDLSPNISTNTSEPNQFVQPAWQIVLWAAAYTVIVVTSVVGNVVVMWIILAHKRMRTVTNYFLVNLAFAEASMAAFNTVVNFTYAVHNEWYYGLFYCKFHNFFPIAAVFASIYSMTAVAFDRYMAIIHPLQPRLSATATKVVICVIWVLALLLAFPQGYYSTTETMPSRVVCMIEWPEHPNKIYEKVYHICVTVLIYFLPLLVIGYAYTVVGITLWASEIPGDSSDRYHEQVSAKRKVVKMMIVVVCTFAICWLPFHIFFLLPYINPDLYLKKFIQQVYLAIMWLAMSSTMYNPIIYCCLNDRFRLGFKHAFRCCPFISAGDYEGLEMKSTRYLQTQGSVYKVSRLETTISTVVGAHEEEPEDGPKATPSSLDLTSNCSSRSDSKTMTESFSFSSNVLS
The data set is described as above. Type of data set: binding. Conditions: for binding / specific interaction with TACR1: fixed HEK293 cells, 0.01 and 0.05 μg/ml. The method, then:
as §1, §2, §3, §4

Data set [7] relates to IL-8. Briefly: IL-8 secretion in LPS-treated HepG2 cells. Type of data set: cell-based. Conditions: peptide 5 ng/ml for 24 h, then 100 ng/mL LPS for 24 h. Here is the method: FIG. 4 illustrates peptide of SEQUENCE ID NO. […] HepG2 cells were treated with peptide (5 ng/ml) for 24 h before treating with 100 ng/mL of LPS for 24 h. Data presented are the mean±SEM of at least 2 independent experiments. (*p<0.05 **p<0.01 ***p<0.001)
HepG2 cells were treated with peptide (5 ng/ml) for 24 h before treating with 100 ng/mL of LPS for 24 h. Data presented are the mean±SEM of at least two independent experiments. (*p<0.05 **p<0.01 ***p<0.001)

Data set [8] relates to α-SMA. Briefly: Anti-fibrotic activity in human primary hepatic stellate cells (α-SMA). Type of data set: cell-based. Here is the method: FIG. 5A and B illustrate peptide of SEQUENCE ID NO. […] (A) Confocal imaging of human stellate cells treated with TGF-β1 to stimulate expression of α-SMA before treatment with peptide (5 nM). (B) Quantification of α-SMA expression.
Human stellate cells were treated with TGF-β1 to stimulate expression of α-SMA (smooth muscle action; primary marker for fibrosis) before treatment with the peptide (5 nM; SEQUENCE ID NO. 1). Confocal imaging of the cells was undertaken.

Data set [9] relates to human skeletal muscle cells (HSKMC Cells). Briefly: Cell penetration imaging in human skeletal muscle cells. Type of data set: cell-based. Conditions: 60 mins incubation, CY5 tagged peptide. The method, then:
An array of imaging studies was conducted to determine the kinetics and nature of the peptide (SEQUENCE ID NO. 1) interaction with target cell types. These experiments were required to determine if the peptide target was an intra or extra cellular protein. […] Control staining with the unlabelled CY5 dye should no uptake in this cell type.

Data set [10] has as its target T3, Panx1 (Homo sapiens, UniProt Q96RD7). Put plainly: Intracellular peptide concentration after PANX1 activation (Caco2). Type of data set: cell-based. Also on record: endogenous in cells; host or cells: Caco2. Conditions: Caco2 cells, before and after channel activation by increased extracellular calcium. The method, then: The peptide of the invention (SEQUENCE ID NO. 1) was added to cells (Caco2). The PANX1 channel was activated in cells by increasing extracellular calcium levels. The intracellular concentration of the peptide was measured before and after activation.

Data set [11] deals with T3, Panx1. Put plainly: Ca2+ flux assay and flow cytometry in THP-1 cells. Type of data set: cell-based. Also on record: endogenous in cells; host or cells: THP-1. The note with it: 45 s preincubation with 1 μM peptide, ATP stimulation. The text has this:
FIG. 9A, B and C illustrate downregulation of ATP mediated Ca2+ ions flux by the peptide (SEQUENCE ID NO. 1). ATP treatment of THP-1 cells causes an increase in detection of FITC labelled Ca^2+ ions (A). […] Comparison of FITC fluorescent units detected via flow cytometry, independent of the peptide and in the presence of the peptide (C).
Panx-1 binding with the peptide (SEQUENCE ID NO. 1) was investigated using a Ca^2+ flux assay and flow cytometry. Panx-1 plays an important role in regulating the Ca^2+ ion and ATP balance at the cell membrane. This relationship can be leveraged to monitor the activity of Panx1. Blocking Panx1 should lead to a significant decrease in Ca^2+ flux in the cell, in response to ATP stimulation.
THP-1 cells were incubated with a FITC fluorescent dye for a period of 30 min in order to label intracellular Ca^2+ ions. Cells were then stimulated with ATP to drive calcium flux from the cell, this increase in fluorescence is then detected by flow cytometry. Prior to ATP stimulation, the cells are incubated with 1 μM doses of the peptide in order to investigate if a drop in calcium flux is observed, this drop caused by binding of the peptide to Panx1, thus inhibiting ATP mediated calcium flux.

Data set [12] deals with 5528 full-length human plasma membrane proteins and secreted proteins. Put plainly: Retrogenix cell microarray screen on fixed HEK293 cells. Type of data set: binding. Here is the method:
as §1, §2, §3, §4

Data set [13] deals with T4, SLC35F2 (human, UniProt Q8IXU6 1-374).
T4 construct: whole, on cells
T4 sequence (looked up): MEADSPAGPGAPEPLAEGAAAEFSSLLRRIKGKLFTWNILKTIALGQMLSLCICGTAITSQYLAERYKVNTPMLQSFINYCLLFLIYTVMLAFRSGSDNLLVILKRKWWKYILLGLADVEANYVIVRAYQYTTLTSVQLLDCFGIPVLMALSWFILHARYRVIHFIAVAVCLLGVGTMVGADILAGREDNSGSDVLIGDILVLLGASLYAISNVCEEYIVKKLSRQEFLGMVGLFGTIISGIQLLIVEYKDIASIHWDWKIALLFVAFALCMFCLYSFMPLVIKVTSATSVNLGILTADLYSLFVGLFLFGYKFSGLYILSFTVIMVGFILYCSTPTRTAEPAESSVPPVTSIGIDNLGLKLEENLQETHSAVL
Briefly: cell microarray, CY5-labelled peptide on fixed HEK293 cells expressing human plasma membrane proteins.

The target in data set [14] is T5, TACR1 (Substance P receptor) (human, UniProt P25103 1-407).
T5 construct: whole, on cells
T5 sequence (P25103 whole entry): as the sequence (P25103 whole entry) above
The data set is described as above.

T3 sequence (Q96RD7 whole entry): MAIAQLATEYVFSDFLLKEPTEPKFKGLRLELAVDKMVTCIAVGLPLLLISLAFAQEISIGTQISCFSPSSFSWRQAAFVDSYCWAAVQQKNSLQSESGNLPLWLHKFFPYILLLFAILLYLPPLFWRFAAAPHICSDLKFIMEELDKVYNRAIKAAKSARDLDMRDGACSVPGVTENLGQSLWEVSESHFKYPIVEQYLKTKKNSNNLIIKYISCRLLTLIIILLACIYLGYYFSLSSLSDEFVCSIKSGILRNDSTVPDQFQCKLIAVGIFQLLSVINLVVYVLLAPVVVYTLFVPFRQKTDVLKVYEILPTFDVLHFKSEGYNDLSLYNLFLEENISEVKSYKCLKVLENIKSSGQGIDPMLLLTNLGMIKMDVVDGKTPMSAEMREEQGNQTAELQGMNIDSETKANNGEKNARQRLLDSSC

Consider `CCNC(=O)[C@@H]1CCCN1C(=O)[C@H](CCCNC(=N)N)NC(=O)[C@H](CC(C)C)NC(=O)[C@@H](COC(C)(C)C)NC(=O)[C@H](Cc1ccc(O)cc1)NC(=O)[C@H](CO)NC(=O)[C@H](Cc1c[nH]c2ccccc12)NC(=O)[C@H](Cc1cnc[nH]1)NC(=O)[C@@H]1CCC(=O)N1` [buserelin], for which the half-life result in data set [1] (in humans, in words) is “much longer half-life”.
`NC(=O)CC[C@@H]1NC(=O)[C@H](Cc2ccccc2)NC(=O)[C@H](Cc2ccc(O)cc2)NC(=O)CCSSC[C@@H](C(=O)N2CCC[C@H]2C(=O)N[C@H](CCCN=C(N)N)C(=O)NCC(N)=O)NC(=O)[C@H](CC(N)=O)NC1=O` [desmopressin]: the half-life in data set [1] (human, in vivo) is 3.7 h.
With `C[C@@H](O)[C@@H]1NC(=O)[C@H](CCCCN)NC(=O)[C@@H](Cc2c[nH]c3ccccc23)NC(=O)[C@H](Cc2ccccc2)NC(=O)[C@@H](NC(=O)[C@H](N)Cc2ccccc2)CSSC[C@@H](C(=O)N[C@H](CO)[C@@H](C)O)NC1=O` [octreotide], the “plasma half life time” value in [2] was 1.5 h. For the same molecule, the fraction unbound in [3] is 0.65. Besides, in data set [1] (in humans), the half-life result is reported as “about 100 min”.
Regarding `NC(=O)CC[C@@H]1NC(=O)[C@H](Cc2ccccc2)NC(=O)[C@H](Cc2ccc(O)cc2)NC(=O)[C@@H](N)CSSC[C@@H](C(=O)N2CCC[C@H]2C(=O)N[C@@H](CCCN=C(N)N)C(=O)NCC(N)=O)NC(=O)[C@H](CC(N)=O)NC1=O` [vasopressin], the half-life in data set [1] (in humans) is 0.167 to 0.583 h.
As to WKDEAGKPLVK [SEQUENCE ID NO. 1], the “binding / specific interaction with PANX1” value in data set [4] is on record as “Highly Selective Targets”. In addition, the “binding / specific interaction with SLC35F2” value in [5] is reported as “Highly Selective Targets”. Besides, the “binding / specific interaction with TACR1” value in data set [6] is listed as “Highly Selective Targets”. In data set [7], the “secretion of IL-8” value is listed as “reduces the secretion of IL-8”. Besides, the “anti-fibrotic activity compared with Elafibranor” value in data set [8] (equivalent molar doses) was “outperformed Elafibranor”. Further, the α-SMA expression entry in [8] (human stellate cells treated with TGF-β1, peptide 5 nM, confocal imaging) is given as “decrease in α-SMA expression”. For the same molecule, the intracellular accumulation result in data set [9] is listed as “significant intracellular accumulation”. Moreover, the “intracellular concentration of the peptide” value in data set [10] is on record as “increased when the channel is activated”. Also, the “ATP mediated Ca2+ ion flux” value in data set [11] is “blocks ATP mediated Ca^2+ ion flux”.
In the case of “pep_HTWCFL: the CY5 labelled version of SEQUENCE ID NO. 1 (WKDEAGKPLVK; also: Cy5 label, position not given here)”, in [12] (0.01 μg/ml test peptide on fixed cells for 30 minutes), the “primary hits in initial screening” value is recorded as 43. Further, in [12] (re-tested with 0.01 μg/ml and 0.05 μg/ml test peptide, fixed cells), the “specific interactions for the test peptide after re-expression of primary hits” value is reported as “Nine”. Also, the “binding / specific interaction with PANX1” value in data set [4] is listed as “specific interactions”. Moreover, in data set [4] (fixed cells), the signal to background entry is listed as “greatest signal to background”. Further, in [4] (live cell microarray), the “binding signal on live cells” value is recorded as “lack of signals seen on live cells”. The “binding / specific interaction with SLC35F2” value in data set [5] is listed as “specific interactions”. The “specific interaction with SLC35F2” value in [5] (live cell microarray) is reported as “specific interactions”. The “binding / specific interaction with TACR1” value in [6] is on record as “specific interactions”. The “specific interaction with TACR1” value in data set [6] (live cell microarray) was “specific interactions”.

B1: CY5-labelled peptide (pep_HTWCFL, the CY5 labelled version of SEQUENCE ID NO. 1) (peptide)
peptide: WKDEAGKPLVK-Cy5
notes: also called test peptide; C-terminal CY5 Tagged peptide
Consider B1, for which the binding result in [13] and in data set [14] was “binds” each time.

What is called half-life is the time in which the quantity being followed falls by half. Usually fraction unbound stands for free concentration divided by total concentration.
